Tested on: potato leafhopper (Empoasca fabae)
Assay: Test F: control of potato leafhopper on Soleil bean plant, contact and/or systemic
Type: in vivo
Conditions: 144 h, sprayed at 250 ppm, adults on Soleil bean plant, 6 days, 24° C., read-out: control efficacy, very good to excellent: mortality
Procedure: Test compounds were formulated using a solution containing 10% acetone, 90% water and 300 ppm X-77® Spreader Lo-Foam Formula non-ionic surfactant containing alkylarylpolyoxyethylene, free fatty acids, glycols and isopropanol (Loveland Industries, Inc. Greeley, Colo., USA). The formulated compounds were applied in 1 mL of liquid through a SUJ2 atomizer nozzle with 1/8 JJ custom body (Spraying Systems Co., Wheaton, Ill., USA) positioned 1.27 cm (0.5 inches) above the top of each test unit. Test compounds were sprayed at 250 ppm and/or 50 ppm, and replicated three times. After spraying of the formulated test compound, each test unit was allowed to dry for 1 h and then a black, screened cap was placed on top. The test units were held for 6 days in a growth chamber at 25° C. and 70% relative humidity. Plant feeding damage was then visually assessed based on foliage consumed. […]
Test compounds were formulated and sprayed at 250 ppm and/or 50 ppm, and the tests were replicated three times as described for Test A. After spraying, the test units were allowed to dry for 1 h before they were post-infested with 5 potato leafhoppers (18-21-day-old adults). […] Each test unit was then visually assessed for insect mortality.

N#CC1CCN(Cc2cn(-c3cccc(C(F)(F)F)c3)nc2-c2ccc(F)cc2)CC1 [Compound 12, 1-[[3-(4-fluorophenyl)-1-[3-(trifluoromethyl)phenyl]-1H-pyrazol-4-yl]methyl]-4-piperidinecarbonitrile]
mortality at 250 ppm: ≥ 80%
